Tested on: gastrointestinal motility in the gastric antrum and duodenum
Test: gastrointestinal motility under pentagastrin-stimulated gastric acid secretion in conscious dogs with force transducers
Format: in vivo, Beagle dogs
Description: Beagle dogs surgically wearing a force transducer at gastric antrum and serosal side of duodenum were used, and the motion of the gastric antrum and duodenum under wakefulness were observed. After confirming the phase III in the hungry condition, gastric acid secretion was stimulated by pentagastrin subcutaneous infusion (6 microg/kg/hr). Pentagastrin infusion was continued until the end of the study. After about 2 hours from pentagastrin infusion, an acid pump antagonist (compound A) was orally administered, and then gastrointestinal motility was continuously observed for 2-3 hours. In FIG. 1, the horizontal axis represents the time at measuring, and the vertical axis represents the gastrointestinal contraction towards muscle bridge of gastric antrum or duodenum. The phase III contraction disappeared by pentagastrin stimulation, 6 microg/kg/hr, which is known to promote gastric acid secretion; and uncoordinated contraction, which is different from the contraction of postprandial period with solid food, occurred in the stomach and duodenum.

COCCn1c(C)nc2cc(C(=O)N(C)C)c3c(c21)OC(c1ccccc1)CC3 (single isomer, unassigned; (-)) [compound A, (−)-1-(2-methoxyethyl)-N,N,2-trimethyl-8-phenyl-1,6,7,8-tetrahydrochromeno[7,8-d]imidazole-5-carboxamide]
effect on gastrointestinal motility (phase III contraction / IMC) (0.3 mg/kg orally, about 2 hours after start of pentagastrin s.c. infusion 6 microg/kg/hr, hungry condition, FIG. 1): the phase III contraction occurred in the stomach and duodenum
time after administration at which phase III contraction occurred (0.3 mg/kg orally, pentagastrin infusion 6 microg/kg/hr, stomach and duodenum): one

Cc1nc2c(O[C@H]3CCOc4cc(F)cc(F)c43)cc(C(=O)N(C)C)cc2[nH]1 [compound B, (S)-(−)-4-[(5,7-difluoro-3,4-dihydro-2H-chromen-4-yl)oxy]-N,N,2-trimethyl-1H-benzimidazole-6-carboxamide]
time after dosing until IMC occurred (1 mg/kg orally, pentagastrin infusion, method as Example 1): one
effect on gastrointestinal motility (phase III contraction / IMC) (1 mg/kg orally, pentagastrin infusion, method as Example 1, FIG. 2): IMC occurred

Cc1cccc(C)c1CNc1cc(C(=O)NCCO)cn2c(C)c(C)nc12 [AZD0865, 8-[{2,6-dimethylbenzyl}amino]-N-[2-hydroxyethyl]-2,3-dimethyl-imidazo[1,2-a]pyridin-6-carboxamide]
time after dosing until irregular contraction tended to subside (1.5 mg/kg orally, pentagastrin infusion, method as Example 1): one
effect on gastrointestinal motility (phase III contraction / IMC) (1.5 mg/kg orally, pentagastrin infusion, method as Example 1, FIG. 4): IMC occurred

Cc1nc(Nc2ccc(F)cc2)nc(N2CCc3ccccc3C2C)c1C.Cl (centres unmarked) [revaprazan, 5,6-dimethyl-2-(4-fluoro-phenylamino)-4-(1-methyl-1,2,3,4-tetrahydroisoquinoline-2-yl)pyrimidine hydrochloride]
time after dosing until irregular contraction tended to subside (10 mg/kg orally, pentagastrin infusion, method as Example 1): one
effect on gastrointestinal motility (phase III contraction / IMC) (10 mg/kg orally, pentagastrin infusion, method as Example 1, FIG. 3): IMC occurred
